# In patent publication US20250129064A1, “PRODRUGS OF 2-BROMO-LSD (2-BRO[…] DIETHYLAMIDE)” (Terran Biosciences Inc., priority 2022, published 2025):
# “And” between values parts separate entries of the source, which are not always exact repeats. Equal values may be shown once.
# Assay: Serial tail vein bleed PK study of 2-Br-LSD and 2-Br-LSD prodrugs in SD rats; 2-Br-LSD measured in plasma
# Settings: analyte 2-Br-LSD in plasma; for AUC(0-t): AUC0-last; for half-life: T½
# [1] = 2-Br-LSD 1 mg/kg IV, male SD rat, individual animal
# [2] = 2-Br-LSD 4 mg/kg oral, male SD rat, individual animal
# [3] = male, Sprague-Dawley, rat, plasma, iv, 1 mg/kg, 2-Br-LSD 1 mg/kg IV, male SD rat, individual animal
# [4] = male, Sprague-Dawley, rat, plasma, iv, 1 mg/kg, 2-Br-LSD 1 mg/kg IV, male SD rats, mean of 3
# [5] = male, Sprague-Dawley, rat, plasma, po, 4 mg/kg, 2-Br-LSD 4 mg/kg oral, male SD rat, individual animal
# [6] = male, Sprague-Dawley, rat, plasma, po, 4 mg/kg, 2-Br-LSD 4 mg/kg oral, male SD rats, mean of 3
smiles,measurement,setting,value
"CCN(CC)C(=O)[C@@H]1C=C2c3cccc4[nH]c(Br)c(c34)C[C@H]2N(C)C1 [Example 2-Br-LSD, (6aR,9R)-5-bromo-N,N-diethyl-7-methyl-6,6a,8,9-tetrahydro-4H-indolo[4,3-fg]quinoline-9-carboxamide]",AUC0-inf,[1],269 ng·h/mL and 308 ng·h/mL
same,AUC0-last,[1],268 ng·h/mL and 304 ng·h/mL
same,Cmax,[1],658 ng/mL and 500 ng/mL
same,Tlast,[1],4.00 h
same,T½,[1],37.7 min and 44.8 min
same,Tlast,"2-Br-LSD 1 mg/kg IV, male SD rats, mean of 3",4.00 h
same,AUC0-inf,[2],1960 ng·h/mL and 1450 ng·h/mL
same,AUC0-last,[2],1430 ng·h/mL and 997 ng·h/mL
same,Cmax,[2],366.0 ng/mL and 209.0 ng/mL
same,Tlast,[2],7 h
same,T½,[2],240 min
same,Tlast,"2-Br-LSD 4 mg/kg oral, male SD rats, mean of 3",7 h
same,AUC0-inf,"male, Sprague-Dawley, rat, plasma, iv, 1 mg/kg, AUC0-inf, 2-Br-LSD 1 mg/kg IV, male SD rat, individual animal",280 ng·h/mL
same,AUC0-inf,"male, Sprague-Dawley, rat, plasma, iv, 1 mg/kg, AUC0-inf, 2-Br-LSD 1 mg/kg IV, male SD rats, mean of 3",286 ng·h/mL
same,AUC(0-t),[3],278 ng·h/mL
same,AUC(0-t),[4],283 ng·h/mL
same,Cmax,"male, Sprague-Dawley, rat, plasma, iv, 1 mg/kg, Cmax, 2-Br-LSD 1 mg/kg IV, male SD rat, individual animal",577 ng/mL
same,Cmax,"male, Sprague-Dawley, rat, plasma, iv, 1 mg/kg, Cmax, 2-Br-LSD 1 mg/kg IV, male SD rats, mean of 3",578 ng/mL
same,half-life,[3],44.3 min
same,half-life,[4],42.2 min
same,AUC0-inf,"male, Sprague-Dawley, rat, plasma, po, 4 mg/kg, AUC0-inf, 2-Br-LSD 4 mg/kg oral, male SD rat, individual animal",1780 ng·h/mL
same,AUC0-inf,"male, Sprague-Dawley, rat, plasma, po, 4 mg/kg, AUC0-inf, 2-Br-LSD 4 mg/kg oral, male SD rats, mean of 3",1730 ng·h/mL
same,AUC(0-t),[5],1350 ng·h/mL
same,AUC(0-t),[6],1260 ng·h/mL
same,Cmax,"male, Sprague-Dawley, rat, plasma, po, 4 mg/kg, Cmax, 2-Br-LSD 4 mg/kg oral, male SD rat, individual animal",338 ng/mL
same,Cmax,"male, Sprague-Dawley, rat, plasma, po, 4 mg/kg, Cmax, 2-Br-LSD 4 mg/kg oral, male SD rats, mean of 3",304 ng/mL
same,half-life,[5],216 min
same,half-life,[6],222 min
